Source: PubChem BioAssay (NCI)
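Protocol summary: plate cells (96-well), add compound at 5 concentrations, incubate 48 h, interpolate endpoints linearly. At the TGI there is no net growth.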

tested on: HCT-15 colon; assay: NCI-60 cell line screen, 48 h

| Structure (SMILES) | TGI [µM] |
| --- | --- |
| CCCC(=O)N(C(=O)CCC)C1=C(Cl)C(=O)c2ccccc2C1=O | 14.2 |
| Cc1ccc(C)c2c1C/C(=C\c1ccccc1C(=O)O)C2=O | > 100 |
| COc1ccc(-c2cn3c(nc4ccccc43)c(/C=C/c3cccs3)n2)cc1 | > 100 |
| O=C(Nc1c(Cl)cccc1Cl)c1c(Cl)c(Cl)c(Cl)c(Cl)c1-c1nc2ccccc2[nH]1 | > 100 |
| CCC1=C(C)C(=O)N/C1=C\c1[nH]c(C)c([C@H](C)CCN)c1C | 28.6 |

tested on: EKVX NSCLC; assay: NCI-60 cell line screen, 48 h

| Structure (SMILES) | TGI [µM] |
| --- | --- |
| CCCC(=O)N(C(=O)CCC)C1=C(Cl)C(=O)c2ccccc2C1=O | > 42.5 |
| Cc1ccc(C)c2c1C/C(=C\c1ccccc1C(=O)O)C2=O | > 100 |
| O=C(Nc1c(Cl)cccc1Cl)c1c(Cl)c(Cl)c(Cl)c(Cl)c1-c1nc2ccccc2[nH]1 | > 100 |
| CCC1=C(C)C(=O)N/C1=C\c1[nH]c(C)c([C@H](C)CCN)c1C | 28.1 |

tested on: SNB-19 CNS; assay: NCI-60 cell line screen, 48 h

| Structure (SMILES) | TGI [µM] |
| --- | --- |
| CCCC(=O)N(C(=O)CCC)C1=C(Cl)C(=O)c2ccccc2C1=O | 24.4 |
| Cc1ccc(C)c2c1C/C(=C\c1ccccc1C(=O)O)C2=O | > 100 |
| COc1ccc(-c2cn3c(nc4ccccc43)c(/C=C/c3cccs3)n2)cc1 | > 100 |

tested on: KM12 colon; assay: NCI-60 cell line screen, 48 h

| Structure (SMILES) | TGI [µM] |
| --- | --- |
| CCCC(=O)N(C(=O)CCC)C1=C(Cl)C(=O)c2ccccc2C1=O | 15.5 |
| Cc1ccc(C)c2c1C/C(=C\c1ccccc1C(=O)O)C2=O | > 100 |
| COc1ccc(-c2cn3c(nc4ccccc43)c(/C=C/c3cccs3)n2)cc1 | > 100 |
| O=C(Nc1c(Cl)cccc1Cl)c1c(Cl)c(Cl)c(Cl)c(Cl)c1-c1nc2ccccc2[nH]1 | > 100 |
| CCC1=C(C)C(=O)N/C1=C\c1[nH]c(C)c([C@H](C)CCN)c1C | 30.7 |

tested on: SK-MEL-5 melanoma; assay: NCI-60 cell line screen, 48 h

| Structure (SMILES) | TGI [µM] |
| --- | --- |
| CCCC(=O)N(C(=O)CCC)C1=C(Cl)C(=O)c2ccccc2C1=O | > 23.9 |
| Cc1ccc(C)c2c1C/C(=C\c1ccccc1C(=O)O)C2=O | > 100 |
| COc1ccc(-c2cn3c(nc4ccccc43)c(/C=C/c3cccs3)n2)cc1 | > 100 |
| O=C(Nc1c(Cl)cccc1Cl)c1c(Cl)c(Cl)c(Cl)c(Cl)c1-c1nc2ccccc2[nH]1 | > 100 |
| CCC1=C(C)C(=O)N/C1=C\c1[nH]c(C)c([C@H](C)CCN)c1C | 31.4 |

tested on: OVCAR-4 ovarian; assay: NCI-60 cell line screen, 48 h

| Structure (SMILES) | TGI [µM] |
| --- | --- |
| CCCC(=O)N(C(=O)CCC)C1=C(Cl)C(=O)c2ccccc2C1=O | 82.8 |
| Cc1ccc(C)c2c1C/C(=C\c1ccccc1C(=O)O)C2=O | > 100 |
| COc1ccc(-c2cn3c(nc4ccccc43)c(/C=C/c3cccs3)n2)cc1 | > 100 |
| O=C(Nc1c(Cl)cccc1Cl)c1c(Cl)c(Cl)c(Cl)c(Cl)c1-c1nc2ccccc2[nH]1 | > 100 |
| CCC1=C(C)C(=O)N/C1=C\c1[nH]c(C)c([C@H](C)CCN)c1C | 26.7 |

tested on: MCF7 breast; assay: NCI-60 cell line screen, 48 h

| Structure (SMILES) | TGI [µM] |
| --- | --- |
| Cc1ccc(C)c2c1C/C(=C\c1ccccc1C(=O)O)C2=O | > 100 |
| COc1ccc(-c2cn3c(nc4ccccc43)c(/C=C/c3cccs3)n2)cc1 | > 100 |
| O=C(Nc1c(Cl)cccc1Cl)c1c(Cl)c(Cl)c(Cl)c(Cl)c1-c1nc2ccccc2[nH]1 | > 100 |
| CCC1=C(C)C(=O)N/C1=C\c1[nH]c(C)c([C@H](C)CCN)c1C | 32.9 |

tested on: SF-295 CNS; assay: NCI-60 cell line screen, 48 h

| Structure (SMILES) | TGI [µM] |
| --- | --- |
| CCCC(=O)N(C(=O)CCC)C1=C(Cl)C(=O)c2ccccc2C1=O | 33.3 |
| Cc1ccc(C)c2c1C/C(=C\c1ccccc1C(=O)O)C2=O | > 100 |
| O=C(Nc1c(Cl)cccc1Cl)c1c(Cl)c(Cl)c(Cl)c(Cl)c1-c1nc2ccccc2[nH]1 | > 100 |
| CCC1=C(C)C(=O)N/C1=C\c1[nH]c(C)c([C@H](C)CCN)c1C | 31.5 |

tested on: T-47D breast; assay: NCI-60 cell line screen, 48 h

| Structure (SMILES) | TGI [µM] |
| --- | --- |
| CCCC(=O)N(C(=O)CCC)C1=C(Cl)C(=O)c2ccccc2C1=O | > 100 |
| Cc1ccc(C)c2c1C/C(=C\c1ccccc1C(=O)O)C2=O | > 100 |
| COc1ccc(-c2cn3c(nc4ccccc43)c(/C=C/c3cccs3)n2)cc1 | > 100 |
| O=C(Nc1c(Cl)cccc1Cl)c1c(Cl)c(Cl)c(Cl)c(Cl)c1-c1nc2ccccc2[nH]1 | > 100 |
| CCC1=C(C)C(=O)N/C1=C\c1[nH]c(C)c([C@H](C)CCN)c1C | 26.2 |

tested on: MDA-N; assay: NCI-60 cell line screen, 48 h

| Structure (SMILES) | TGI [µM] |
| --- | --- |
| CCCC(=O)N(C(=O)CCC)C1=C(Cl)C(=O)c2ccccc2C1=O | 28.2 |
| Cc1ccc(C)c2c1C/C(=C\c1ccccc1C(=O)O)C2=O | > 100 |
| COc1ccc(-c2cn3c(nc4ccccc43)c(/C=C/c3cccs3)n2)cc1 | 25.1 |
| O=C(Nc1c(Cl)cccc1Cl)c1c(Cl)c(Cl)c(Cl)c(Cl)c1-c1nc2ccccc2[nH]1 | > 100 |
| CCC1=C(C)C(=O)N/C1=C\c1[nH]c(C)c([C@H](C)CCN)c1C | 29.1 |

tested on: SR leukemia; assay: NCI-60 cell line screen, 48 h

| Structure (SMILES) | TGI [µM] |
| --- | --- |
| CCCC(=O)N(C(=O)CCC)C1=C(Cl)C(=O)c2ccccc2C1=O | > 54.1 |
| Cc1ccc(C)c2c1C/C(=C\c1ccccc1C(=O)O)C2=O | > 100 |
| COc1ccc(-c2cn3c(nc4ccccc43)c(/C=C/c3cccs3)n2)cc1 | 15.4 |
| O=C(Nc1c(Cl)cccc1Cl)c1c(Cl)c(Cl)c(Cl)c(Cl)c1-c1nc2ccccc2[nH]1 | > 100 |
| CCC1=C(C)C(=O)N/C1=C\c1[nH]c(C)c([C@H](C)CCN)c1C | > 100 |

tested on: NCI/ADR-RES ovarian; assay: NCI-60 cell line screen, 48 h

| Structure (SMILES) | TGI [µM] |
| --- | --- |
| CCCC(=O)N(C(=O)CCC)C1=C(Cl)C(=O)c2ccccc2C1=O | 61.3 |
| Cc1ccc(C)c2c1C/C(=C\c1ccccc1C(=O)O)C2=O | > 100 |
| COc1ccc(-c2cn3c(nc4ccccc43)c(/C=C/c3cccs3)n2)cc1 | 51.7 |
| O=C(Nc1c(Cl)cccc1Cl)c1c(Cl)c(Cl)c(Cl)c(Cl)c1-c1nc2ccccc2[nH]1 | > 100 |
| CCC1=C(C)C(=O)N/C1=C\c1[nH]c(C)c([C@H](C)CCN)c1C | 49 |

tested on: UO-31 renal; assay: NCI-60 cell line screen, 48 h

| Structure (SMILES) | TGI [µM] |
| --- | --- |
| CCCC(=O)N(C(=O)CCC)C1=C(Cl)C(=O)c2ccccc2C1=O | 4.75 |
| Cc1ccc(C)c2c1C/C(=C\c1ccccc1C(=O)O)C2=O | > 100 |
| COc1ccc(-c2cn3c(nc4ccccc43)c(/C=C/c3cccs3)n2)cc1 | > 100 |
| O=C(Nc1c(Cl)cccc1Cl)c1c(Cl)c(Cl)c(Cl)c(Cl)c1-c1nc2ccccc2[nH]1 | > 100 |
| CCC1=C(C)C(=O)N/C1=C\c1[nH]c(C)c([C@H](C)CCN)c1C | 29.2 |

tested on: SNB-75 CNS; assay: NCI-60 cell line screen, 48 h

| Structure (SMILES) | TGI [µM] |
| --- | --- |
| CCCC(=O)N(C(=O)CCC)C1=C(Cl)C(=O)c2ccccc2C1=O | 15.3 |
| Cc1ccc(C)c2c1C/C(=C\c1ccccc1C(=O)O)C2=O | > 100 |
| COc1ccc(-c2cn3c(nc4ccccc43)c(/C=C/c3cccs3)n2)cc1 | > 100 |
| O=C(Nc1c(Cl)cccc1Cl)c1c(Cl)c(Cl)c(Cl)c(Cl)c1-c1nc2ccccc2[nH]1 | 84.9 |
| CCC1=C(C)C(=O)N/C1=C\c1[nH]c(C)c([C@H](C)CCN)c1C | 22.6 |

tested on: TK-10 renal; assay: NCI-60 cell line screen, 48 h

| Structure (SMILES) | TGI [µM] |
| --- | --- |
| CCCC(=O)N(C(=O)CCC)C1=C(Cl)C(=O)c2ccccc2C1=O | 14.8 |
| Cc1ccc(C)c2c1C/C(=C\c1ccccc1C(=O)O)C2=O | > 100 |
